Like-named read-outs stand apart in the source and are kept apart here.
Assays:
human PBMC = assay: TGF-β1 accumulation by human PBMC (antibody staining and ELISA); type: cell-based; conditions: inhibitor 3 μM; sialidases 200 ng/ml; 5 days; ELISA
Protocol: To determine if sialidases might cause cells to accumulate intracellular and extracellular TGF-β1, human PBMC were cultured with sialidases in 96 well plates at 5×10^5 cells/ml and 200 μl/well in FibroLife serum-free medium for five days, then air dried. The levels of TGF-β1 in or on the cells was detected by staining with an antibody against TGF-β1. Photomicrographs were analyzed by counting stained cells (FIG. 7B) and quantifying staining intensity using ImageJ (FIG. 7C).
PBMC were cultured in 96 well plates at 5×10^5 cells/ml and 200 μl/well in FibroLife serum-free medium. When the cells were plated, recombinant human sialidases were added to final concentrations of 200 ng/ml, and DANA or oseltamivir were added to 3 μM. After 5 days, culture supernatants were analyzed using a TGF-β1 ELISA kit (R&D Systems).

[1] = system: mice with bleomycin-induced fibrosis; assay: mouse bleomycin model of pulmonary fibrosis; type: in vivo; conditions: day 21
Protocol: The successful aspiration of bleomycin into the lungs was confirmed by listening for a crackling noise heard after the aspiration. Mice were weighed daily, and euthanized using CO2 following NIH guidelines at day 21 after bleomycin aspiration. The experiment was performed in accordance with the recommendations in the Guide for the Care and Use of Laboratory Animals of the National Institutes of Health. The Texas A&M University Animal Use and Care Committee approved the protocol.
The BALs were clarified by centrifugation at 500×g for 10 minutes, and the supernatants were transferred to Eppendorf tubes. The supernatants were flash frozen with liquid nitrogen, and stored at −20° C. until further use.
After collection of BAL fluid, mouse lungs were inflated with prewarmed Optimal Cutting Temperature (OCT) embedding medium (VWR, Radnor, PA) and then embedded in OCT, frozen on dry ice, and then stored at −80° C. 6-micron cryosections of mouse lungs were mounted on Superfrost Plus® microscope slides (VWR). The sections on the slides were allowed to air-dry for 24-48 hours. The slides were then fixed in acetone at room temperature for 20 minutes and air-dried for 10 minutes.
Then, starting 24 hours after bleomycin had been administered, the mice were given daily intraperitoneal injections of 10 mg/kg DANA (Calbiochem) in PBS or 10 mg/kg oseltamivir (Sigma) in PBS. Both inhibitors are quite polar and thus probably remain in the extracellular space. Assuming 2 ml of extracellular space in a 20 gram mouse, these doses would then be ˜3 μM. At day 21, mice were sacrificed and BAL and cryosections of lungs were obtained as described for Example 3. The experiment was performed in accordance with the recommendations in the Guide for the Care and Use of Laboratory Animals of the National Institutes of Health. The Texas A&M University Animal Use and Care Committee approved the protocol.
Treatment of mice with oropharyngeal bleomycin results in an initial inflammation, and then a fibrosis that has begun by day 10 after bleomycin treatment. To determine if sialidase inhibitors decrease fibrosis when treatment starts after the initial inflammation stage and when fibrosis is present, mice were treated with oropharyngeal bleomycin to induce symptoms of pulmonary fibrosis as described above. Then, starting 10 days after bleomycin had been administered, the mice were given daily intraperitoneal injections of 10 mg/kg DANA (Calbiochem) in PBS or 10 mg/kg oseltamivir (Sigma) in PBS. At day 21, mice were sacrificed and BAL and cryosections of lungs were obtained as described above. The experiment was performed in accordance with the recommendations in the Guide for the Care and Use of Laboratory Animals of the National Institutes of Health. The Texas A&M University Animal Use and Care Committee approved the protocol.
To determine if sialidase inhibitors could also reduce TGF-β1 levels in mice, mice were treated with bleomycin or saline, then injected daily with saline, DANA or oseltamivir starting at day 10 after bleomycin treatment, as described in Example 9. The mice were euthanized at day 21 and sections of lung tissue were stained for TGF-β1. Results are presented in FIG. 11A and are representative of results for three mice per group.

murine sialidases = conditions: mice, cited from earlier work
human sialidases = conditions: all four human sialidases; carboxylate form; cited from earlier work
[2] = target: LPS-induced mouse macrophage sialidase activity; conditions: cited from earlier work
[3] = 10 mg/kg daily i.p. starting at day 10

CCC(CC)[C@H](NC(C)=O)[C@@H]1[C@H](O)[C@@H](C(=O)O)C[C@H]1N=C(N)N [Compound 58, (1S,2S,3S,4R)-3-[(1S)-1-acetamido-2-ethyl-butyl]-4-(diaminomethylideneamino)-2-hydroxy-cyclopentane-1-carboxylic acid]
effects of NEU2 and NEU3 on extracellular TGF-β1 (human PBMC): blocked | collagen deposition in the lungs (Sirius red) ([1]; 10 mg/kg daily i.p. starting 24 hours after bleomycin): reduced | collagen deposition in the lungs (Sirius red) [1, 3]: reduced | total protein in BAL [1, 3]: attenuated | TGF-β1 levels in lung tissue (staining) ([1]; daily injection starting at day 10): reduced TGF-β1 levels | inhibitor of murine sialidases (murine sialidases; listed as Oseltamivir): potent sialidase inhibitor in mice | inhibitor of murine sialidases (murine sialidases; listed as oseltamivir): potent inhibitor | inhibitor of human sialidases (human sialidases): poor inhibitor | IC50 [2]: 1000 nM

— patent publication US20250144172A1, “ANTI-FIBROTIC SIALIDASE INHIBITOR COMPOUNDS AND METHODS OF USE” (The Texas A&M University System, priority 2016, published 2025)
